Measurements as given in patent publication US10851083B2, “Benzoimidazoles as prolyl hydroxylase inhibitors” (Janssen Pharmaceutica NV, priority 2008, dated 2020).

These molecules were tested against human PHD2181-417 (Homo sapiens (Human), UniProt Q9GZT9) (assay: PHD2 enzyme activity assay ([14C]-succinic acid production)). Conditions: PHD2181-417 polypeptide, HIF-1α peptide 10 μM, [5-14C]-2-oxoglutaric acid; 30 min pre-incubation; tested 10 μM to 3 nM.
Format: biochemical
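For Enzyme pIC50 in this document: reaction ran 10 min with compound in Tris pH 7.5 buffer with catalase, DTT and ascorbate, labelled succinate freed of leftover 2-oxoglutarate by DNP precipitation, then beta counted.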

human PHD2181-417, sequence (Q9GZT9 181-417): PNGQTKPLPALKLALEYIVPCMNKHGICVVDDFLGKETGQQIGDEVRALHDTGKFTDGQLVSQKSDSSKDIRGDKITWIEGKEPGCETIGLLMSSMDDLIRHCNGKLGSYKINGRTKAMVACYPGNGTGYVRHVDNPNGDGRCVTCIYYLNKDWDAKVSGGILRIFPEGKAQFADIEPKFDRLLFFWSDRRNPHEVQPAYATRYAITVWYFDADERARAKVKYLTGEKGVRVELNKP

Q: For `CC(C)Sc1cc2[nH]c(-n3cc(C(=O)O)cn3)nc2cc1C(F)(F)F` [Example 73, 1-(6-Isopropylsulfanyl-5-trifluoromethyl-1H-benzoimidazol-2-yl)-1H-pyrazole-4-carboxylic Acid], which “Enzyme pIC50” value is on record?
A: The value was 7.2.

Q: For `CC(C)Sc1cc2[nH]c(-n3cc(C(=O)O)cn3)nc2cc1OC(F)(F)F` [Example 80, 1-(6-Isopropylsulfanyl-5-trifluoromethoxy-1H-benzoimidazol-2-yl)-1H-pyrazole-4-carboxylic Acid], which “Enzyme pIC50” value is on record?
A: The value was 7.

Q: Which “Enzyme pIC50” value does the source give for `CCCSc1cc2[nH]c(-n3cc(C(=O)O)cn3)nc2cc1OC(F)(F)F` [Example 81, 1-(6-Propylsulfanyl-5-trifluoromethoxy-1H-benzoimidazol-2-yl)-1H-pyrazole-4-carboxylic Acid] here?
A: The value was 7.

Q: `CC(C)S(=O)(=O)c1cc2[nH]c(-n3cc(C(=O)O)cn3)nc2cc1C(F)(F)F` [Example 103, 1-[6-(Propane-2-sulfonyl)-5-trifluoromethyl-1H-benzoimidazol-2-yl]-1H-pyrazole-4-carboxylic Acid] was tested. Which “Enzyme pIC50” value did it give?
A: Its value is 7.4.

Q: How did the “Enzyme pIC50” value turn out when `CCCS(=O)(=O)c1cc2[nH]c(-n3cc(C(=O)O)cn3)nc2cc1C(F)(F)F` [Example 104, 1-[6-(Propane-1-sulfonyl)-5-trifluoromethyl-1H-benzoimidazol-2-yl]-1H-pyrazole-4-carboxylic Acid] was run?
A: The value was 7.5.

Q: `CC(C)S(=O)(=O)c1cc2[nH]c(-n3cc(C(=O)O)cn3)nc2cc1OC(F)(F)F` [Example 105, 1-[6-(Propane-2-sulfonyl)-5-trifluoromethoxy-1H-benzoimidazol-2-yl]-1H-pyrazole-4-carboxylic Acid] was tested. Which “Enzyme pIC50” value did it give?
A: Its value is 7.4.

Q: For `CC(C)Sc1cc2nc(-n3cc(C(=O)O)cn3)[nH]c2cc1F` [Example 153, 1-(6-Fluoro-5-isopropylsulfanyl-1H-benzoimidazol-2-yl)-1H-pyrazole-4-carboxylic Acid], which “Enzyme pIC50” value is on record?
A: Its value is 6.9.

Q: With `CCCS(=O)(=O)c1cc2nc(-n3cc(C(=O)O)cn3)[nH]c2cc1F` [Example 157, 1-(6-Fluoro-5-propylsulfonyl-1H-benzoimidazol-2-yl)-1H-pyrazole-4-carboxylic Acid] as the molecule, how does the “Enzyme pIC50” value read?
A: The value was 7.4.

Q: For `CC(C)S(=O)(=O)c1cc2nc(-n3cc(C(=O)O)cn3)[nH]c2cc1F` [Example 158, 1-(6-Fluoro-5-isopropylsulfonyl-1H-benzoimidazol-2-yl)-1H-pyrazole-4-carboxylic Acid], which “Enzyme pIC50” value is on record?
A: The value was 7.3.

Q: How did the “Enzyme pIC50” value turn out when `O=C(O)c1cnn(-c2nc3cc(SCc4ccc(C(F)(F)F)cc4)c(Cl)cc3[nH]2)c1` [Example 170, 1-[6-Chloro-5-(4-trifluoromethyl-benzylsulfanyl)-1H-benzoimidazol-2-yl]-1H-pyrazole-4-carboxylic Acid] was run?
A: Its value is 6.7.

Q: Which “Enzyme pIC50” value does the source give for `O=C(O)c1cnn(-c2nc3cc(SCc4ccc(C(F)(F)F)cc4C(F)(F)F)c(Cl)cc3[nH]2)c1` [Example 171, 1-[5-(2,4-Bis-trifluoromethyl-benzylsulfanyl)-6-chloro-1H-benzoimidazol-2-yl]-1H-pyrazole-4-carboxylic Acid] here?
A: The value was 6.7.

Same assay, conditions: PHD2181-417 polypeptide, HIF-1α peptide 10 μM, [5-14C]-2-oxoglutaric acid; 30 min pre-incubation; tested 10 μM to 3 nM; read-out: Enzyme pIC50 (converted)

Q: With `Cc1ccc(CSc2cc3nc(-n4cc(C(=O)O)cn4)[nH]c3cc2Cl)cc1` [Example 169, 1-[6-Chloro-5-(4-methyl-benzylsulfanyl)-1H-benzoimidazol-2-yl]-1H-pyrazole-4-carboxylic Acid] as the molecule, how does the IC50 read?
A: The IC50 was 200 nM.

The molecules below were run on Hep-3B cells (assay: Cellular assay: EPO secretion in Hep-3B cells). Conditions: 24 h, compound at 100 μM (10 μM or 100 μM), EPO secretion as percentage of control compound 7-[(4-Chloro-phenyl)-(5-methyl-isoxazol-3-ylamino)-methyl]-quinolin-8-ol.
Format: cell-based, human
Parameters: EPO secretion, % of control compound: dose or concentration left out as unconfirmed

Q: With `O=C(O)c1cnn(-c2nc3ccccc3[nH]2)c1` [Example 1, 1-(1H-Benzoimidazol-2-yl)-1H-pyrazole-4-carboxylic Acid] as the molecule, how does the “Cellular % EPO Stimulation” value read?
A: Its value is 7.1%.

Q: `Cc1cc2nc(-n3cc(C(=O)O)cn3)[nH]c2cc1C` [Example 5, 1-(5,6-Dimethyl-1H-benzoimidazol-2-yl)-1H-pyrazole-4-carboxylic Acid] was tested. Which “Cellular % EPO Stimulation” value did it give?
A: The value was 2.1%.

Q: With `O=C(O)c1cnn(-c2nc3cc(Br)ccc3[nH]2)c1` [Example 6, 1-(5-Bromo-1H-benzoimidazol-2-yl)-1H-pyrazole-4-carboxylic Acid] as the molecule, how does the “Cellular % EPO Stimulation” value read?
A: The value was 9.91%.

Q: Which “Cellular % EPO Stimulation” value does the source give for `COc1ccc2[nH]c(-n3cc(C(=O)O)cn3)nc2c1` [Example 7, 1-(5-Methoxy-1H-benzoimidazol-2-yl)-1H-pyrazole-4-carboxylic Acid] here?
A: Its value is 16.8%.

Q: With `O=C(O)c1cnn(-c2nc3c(Cl)cc(C(F)(F)F)cc3[nH]2)c1` [Example 8, 1-(4-Chloro-6-trifluoromethyl-1H-benzoimidazol-2-yl)-1H-pyrazole-4-carboxylic Acid] as the molecule, how does the “Cellular % EPO Stimulation” value read?
A: Its value is 20.97%.

Q: Which “Cellular % EPO Stimulation” value does the source give for `COc1cc2nc(-n3cc(C(=O)O)cn3)[nH]c2cc1OC` [Example 9, 1-(5,6-Dimethoxy-1H-benzoimidazol-2-yl)-1H-pyrazole-4-carboxylic Acid] here?
A: Its value is 4.26%.

Q: How did the “Cellular % EPO Stimulation” value turn out when `Cc1ccc2[nH]c(-n3cc(C(=O)O)cn3)nc2c1C` [Example 10, 1-(4,5-Dimethyl-1H-benzoimidazol-2-yl)-1H-pyrazole-4-carboxylic Acid] was run?
A: The value was 10.7%.

Q: How did the “Cellular % EPO Stimulation” value turn out when `O=C(O)c1cnn(-c2nc3cc(OC(F)(F)F)ccc3[nH]2)c1` [Example 11, 1-(5-Trifluoromethoxy-1H-benzoimidazol-2-yl)-1H-pyrazole-4-carboxylic Acid] was run?
A: The value was 123.68%.

Q: `O=C(O)c1cnn(-c2nc3cc(-c4cccc(OCc5cccc(Cl)c5)c4)ccc3[nH]2)c1` [Example 12, 1-{5-[3-(3-Chloro-benzyloxy)-phenyl]-1H-benzoimidazol-2-yl}-1H-pyrazole-4-carboxylic Acid] was tested. Which “Cellular % EPO Stimulation” value did it give?
A: Its value is 8.76%.

Q: How did the “Cellular % EPO Stimulation” value turn out when `O=C(O)c1cnn(-c2nc3cc(-c4cccc(OCc5ccccc5Cl)c4)ccc3[nH]2)c1` [Example 13, 1-{5-[3-(2-Chloro-benzyloxy)-phenyl]-1H-benzoimidazol-2-yl}-1H-pyrazole-4-carboxylic Acid] was run?
A: The value was 18%.

Q: With `O=C(O)c1cnn(-c2nc3cc(-c4cccc(OCc5ccccc5)c4)ccc3[nH]2)c1` [Example 15, 1-[5-(3-Benzyloxy-phenyl)-1H-benzoimidazol-2-yl]-1H-pyrazole-4-carboxylic Acid] as the molecule, how does the “Cellular % EPO Stimulation” value read?
A: Its value is 10.77%.

Q: How did the “Cellular % EPO Stimulation” value turn out when `O=C(O)c1cnn(-c2nc3cc(-c4ccc(OCc5ccccc5)cc4)ccc3[nH]2)c1` [Example 16, 1-[5-(4-Benzyloxy-phenyl)-1H-benzoimidazol-2-yl]-1H-pyrazole-4-carboxylic Acid] was run?
A: The value was 6.97%.

Q: `O=C(O)c1cnn(-c2nc3cc(-c4cccc(C(F)(F)F)c4)ccc3[nH]2)c1` [Example 17, 1-[5-(3-Trifluoromethyl-phenyl)-1H-benzoimidazol-2-yl]-1H-pyrazole-4-carboxylic Acid] was tested. Which “Cellular % EPO Stimulation” value did it give?
A: Its value is 5.8%.

Q: With `O=C(O)c1cnn(-c2nc3cc(-c4ccc(Cl)c(Cl)c4)ccc3[nH]2)c1` [Example 18, 1-[5-(3,4-Dichloro-phenyl)-1H-benzoimidazol-2-yl]-1H-pyrazole-4-carboxylic Acid] as the molecule, how does the “Cellular % EPO Stimulation” value read?
A: Its value is 15.3%.

Q: With `O=C(O)c1cn(-c2nc3cc(Br)ccc3[nH]2)nc1C(F)(F)F` [Example 19, 1-(5-Bromo-1H-benzoimidazol-2-yl)-3-trifluoromethyl-1H-pyrazole-4-carboxylic Acid] as the molecule, how does the “Cellular % EPO Stimulation” value read?
A: The value was 20.52%.

Q: With `Cc1nn(-c2nc3cc(Br)ccc3[nH]2)c(C)c1C(=O)O` [Example 21, 1-(5-Bromo-1H-benzoimidazol-2-yl)-3,5-dimethyl-1H-pyrazole-4-carboxylic Acid] as the molecule, how does the “Cellular % EPO Stimulation” value read?
A: The value was 7.24%.

Q: With `O=C(O)c1cnn(-c2nc3cc(-c4ccc(O)cc4)ccc3[nH]2)c1` [Example 23, 1-[5-(4-Hydroxy-phenyl)-1H-benzoimidazol-2-yl]-1H-pyrazole-4-carboxylic Acid] as the molecule, how does the “Cellular % EPO Stimulation” value read?
A: Its value is 6.49%.

Q: With `O=C(O)c1cnn(-c2nc3cc(-c4cccc(O)c4)ccc3[nH]2)c1` [Example 24, 1-[5-(3-Hydroxy-phenyl)-1H-benzoimidazol-2-yl]-1H-pyrazole-4-carboxylic Acid] as the molecule, how does the “Cellular % EPO Stimulation” value read?
A: The value was 11.15%.

Q: With `O=C(O)c1cnn(-c2nc3cc(Cl)ccc3[nH]2)c1` [Example 25, 1-(5-Chloro-1H-benzoimidazol-2-yl)-1H-pyrazole-4-carboxylic Acid] as the molecule, how does the “Cellular % EPO Stimulation” value read?
A: Its value is 71.87%.

Q: How did the “Cellular % EPO Stimulation” value turn out when `Cc1c(Br)cc2nc(-n3cc(C(=O)O)cn3)[nH]c2c1C` [Example 26, 1-(5-Bromo-6,7-dimethyl-1H-benzoimidazol-2-yl)-1H-pyrazole-4-carboxylic Acid] was run?
A: The value was 11.9%.

Same assay, conditions: Homo sapiens, Hep3B, 24 h, EPO secretion as percentage of control compound 7-[(4-Chloro-phenyl)-(5-methyl-isoxazol-3-ylamino)-methyl]-quinolin-8-ol, read-out: Cellular % EPO Stimulation

Q: How did the EPO secretion, % of control compound turn out when `O=C(O)c1cnn(-c2nc3cc(C(F)(F)F)ccc3[nH]2)c1` [Example 3, 1-(5-Trifluoromethyl-1H-benzoimidazol-2-yl)-1H-pyrazole-4-carboxylic Acid] was run?
A: Its EPO secretion, % of control compound is 110%.

Q: `O=C(O)c1cnn(-c2nc3cc(-c4cccc(OCc5ccc(Cl)cc5)c4)ccc3[nH]2)c1` [Example 14, 1-{5-[3-(4-Chloro-benzyloxy)-phenyl]-1H-benzoimidazol-2-yl}-1H-pyrazole-4-carboxylic Acid] was tested. Which EPO secretion, % of control compound did it give?
A: Its EPO secretion, % of control compound is 20.1%.

Q: For `O=C(O)c1cnn(-c2nc3cc(OC(F)(F)F)cc(Br)c3[nH]2)c1` [Example 29, 1-(7-Bromo-5-trifluoromethoxy-1H-benzoimidazol-2-yl)-1H-pyrazole-4-carboxylic Acid], which EPO secretion, % of control compound is on record?
A: Its EPO secretion, % of control compound is 57.5%.

Q: How did the EPO secretion, % of control compound turn out when `O=C(O)c1cnn(-c2nc3cc(C(F)(F)F)c(Cl)cc3[nH]2)c1` [Example 30, 1-(6-Chloro-5-trifluoromethyl-1H-benzoimidazol-2-yl)-1H-pyrazole-4-carboxylic Acid] was run?
A: The EPO secretion, % of control compound was 129%.

Q: How did the EPO secretion, % of control compound turn out when `O=C(O)c1cnn(-c2nc3cc(C(F)(F)F)c(F)cc3[nH]2)c1` [Example 129, 1-(6-Fluoro-5-trifluoromethyl-1H-benzoimidazol-2-yl)-1H-pyrazole-4-carboxylic Acid] was run?
A: Its EPO secretion, % of control compound is 70.8%.

Q: How did the EPO secretion, % of control compound turn out when `CCCSc1cc2nc(-n3cc(C(=O)O)cn3)[nH]c2cc1F` [Example 152, 1-(6-Fluoro-5-propylsulfanyl-1H-benzoimidazol-2-yl)-1H-pyrazole-4-carboxylic Acid] was run?
A: The EPO secretion, % of control compound was 91.4%.
